Assay [1] has as its system HDAC (HeLa nuclear extract). In words: Test for evaluation of an HDAC inhibitory effect (HDAC Fluorimetric Assay/Drug Discovery Kit, Biomol). As to conditions: final concentration of test compound 30 μM, rates of more than 100% are shown as 100%. The format is biochemical. The protocol:
Using HDAC Fluorimetric Assay/Drug Discovery Kit (manufactured by Biomol), an HDAC inhibitory effect of the present compounds was measured according to the protocol included with the kit. The kit contains Buffer, HeLa nuclear extract (includes an HDAC), Substrate, Developer and Trichostatin A (an HDAC inhibitor).
A test compound was dissolved in dimethyl sulfoxide, whereby a 2 mg/mL solution was prepared. Then, the resulting solution was diluted with Buffer containing 5% dimethyl sulfoxide, whereby a 150 μM test compound solution was prepared.
1) To a 384-well culture plate, the test compound solution was added in an amount of 2 μL per well.
2) HeLa nuclear extract was diluted 30-fold with Buffer. The resulting solution was added in an amount of 3 μL per well and then, incubation was performed at 37° C. for 2 hours.
3) Substrate was diluted 500-fold with Buffer. The resulting solution was added in an amount of 5 μL per well (the final concentration of the test compound was 30 μM) and then, incubation was performed at 37° C. for 10 minutes.
4) Developer was diluted 20-fold with Buffer and Trichostatin A (2 μM) was added to it. The resulting solution was added in an amount of 10 μL per well and then, incubation was performed at room temperature for 15 minutes.
5) The fluorescence intensity of each well was measured using multilabel counter ARVO (manufactured by Wallac) with excitation at 360 nm and emission at 460 nm.
6) A control data was obtained from the same experiment except that Buffer containing 5% DMSO was added instead of the test compound solution as the above-mentioned procedure from 1) to 5).
7) A blank data was obtained from the same experiment except that Buffer containing 5% DMSO was added instead of the test compound solution and that Buffer was added instead of Hela nuclear extract as the above-mentioned procedure from 1) to 5).
Enzyme inhibitory rate (%) was calculated using the following equation.
(Enzyme Inhibitory Rate(%))=100×[1−{(Fluorescence Intensity of Test Compound Solution)−(Florescence Intensity of Blank)}/{(Florescence Intensity of Control)−(Florescence Intensity of Blank)}]

The subject of assay [2] is TM-1 cells (human trabecular meshwork cell line). As to the kind of experiment: Test for evaluation of effect of morphological change on trabecular meshwork cells (cell shape index). The format is cell-based. As to conditions: 10 μM, 24 hours, control CSI 0.679, lower CSI indicates greater morphological change. Here is the method:
As a method for evaluating a cellular morphological change, an evaluation system using the cell shape index (hereinafter referred to as “CSI”) as an index has been reported in The Journal of Clinical Investigation, 103, 1141-1150 (1999). Therefore, according to the method described in the above document, an effect of morphological change by the present compounds on trabecular meshwork cells was evaluated.
A human trabecular meshwork cell line (hereinafter referred to as “TM-1 cells”) reported in Investigative Opthalmology & Visual Science, 43, 151-161 (2002) was used.
Culture medium 1: A reagent was prepared by adding fetal bovine serum (10%), L-glutamine (2 mM), amphotericin B (2.5 μg/mL), and gentamicin (25 μg/mL) to Dulbecco's Modified Eagle Medium (hereinafter referred to as “D-MEM”).
Culture medium 2: Fetal bovine serum (3%), L-glutamine (2 mM), amphotericin B (2.5 μg/mL), and gentamicin (25 μg/mL) were added to D-MEM.
Cell staining liquid: A mixed liquid of Calcein-AM (16 μM) and Hoechst 33342 (40 μM) was prepared by diluting a Calcein-AM solution (cytoplasmic staining reagent, manufactured by Dojindo Laboratories) and a Hoechst 33342 solution (nuclear staining reagent, manufactured by Dojindo Laboratories) with D-MEM containing L-glutamine (2 mM), amphotericin B (2.5 μg/mL), and gentamicin (25 μg/mL).
TM-1 cells subcultured at 37° C. in a 8% carbon dioxide gas atmosphere were treated with a trypsin/EDTA solution (0.05% trypsin and 0.53 mM tetrasodium ethylenediaminetetraacetate) at 24 hours before performing a drug treatment mentioned below and seeded on a 96-well culture plate. The culture medium 1 was used for the subculture of the cells. The culture medium 2 was used for the cell culture after seeding the cells on the plate.
A test compound was dissolved in dimethyl sulfoxide, whereby a 5 mM solution was prepared. Then, the resulting solution was diluted with the culture medium 2, whereby a 200 μM test compound solution was prepared.
It has been reported that Y-27632 which is a Rho kinase inhibitor induces a morphological change in trabecular meshwork cells in Investigative Opthalmology & Visual Science, 42, 137-144 (2001). Therefore, Y-27632 (produced according to the method described in WO 90/05723) was used as a positive control, and dissolved in dimethyl sulfoxide in the same manner as the test compound, whereby a 5 mM solution was prepared, and then, the resulting solution was diluted with the culture medium 2, whereby a 200 μM positive control compound solution was prepared.
1) To a 96-well culture plate, a solution of TM-1 cells adjusted to a cell density of […] was added in an amount of 95 μL (1.5×10^4 cells) per well.
2) Incubation was performed at 37° C. in a 8% carbon dioxide gas atmosphere for 24 hours.
3) The test compound solution or positive control compound solution was added in an amount of 5 μL per well (the final concentration of the test compound or positive control compound was 10 μM). As a control, the culture medium 2 containing dimethyl sulfoxide (4%) was added in an amount of 5 μL per well.
4) Incubation was performed at 37° C. in a 8% carbon dioxide gas atmosphere for 24 hours.
5) The cell staining liquid was added in an amount of 10 μL per well.
6) Incubation was performed at 37° C. in a 8% carbon dioxide gas atmosphere for 1 hour to stain the cells.
7) A 37% formaldehyde solution was added in an amount of 10 μL per well.
8) Incubation was performed at room temperature for 1 hour to fix the cells.
9) Washing with phosphate-buffered saline was performed.
10) Using Array Scan Vti HCS reader (manufactured by Cellomics), images of stained cells magnified with a 20-fold objective lens were captured in 80 fields (10 fields×8 wells) per test compound addition group.
11) CSI was calculated for each cell and an average value was obtained for each test compound addition group.
CSI was calculated using the following equation.
CSI=4π×(Cell Area)/(Cell Perimeter)^2

Structures are written as SMILES.

Regarding `Nc1ccccc1NC(=O)c1ccc(CN(CCCN2CCOCC2)C(=O)Nc2ccc3c(c2)CCO3)cn1` [Compound 1-38, N-(2-Aminophenyl)-5-[3-(2,3-dihydro-1-benzofuran-5-yl)-1-[3-(morpholin-4-yl)propyl]ureidomethyl]pyridine-2-carboxylic acid amide], in assay [1], the “Enzyme Inhibitory Rate (%)” value is 97%. The molecule further came in with a CSI in assay [2] of 0.575.
As for `CN(C)CCCN(Cc1ccc(C(=O)Nc2ccccc2N)nc1)C(=O)NCC(=O)c1ccccc1` [Compound 1-40, N-(2-Aminophenyl)-5-[1-(3-dimethylaminopropyl)-3-(phenylcarbonylmethyl)ureidomethyl]pyridine-2-carboxylic acid amide], in assay [1], the “Enzyme Inhibitory Rate (%)” value is given as 97%. In addition, the CSI in assay [2] is on record as 0.572.
For the molecule `CN(C)CCCN(Cc1ccc(C(=O)Nc2ccccc2N)nc1)C(=O)Nc1nccs1` [Compound 1-41, N-(2-Aminophenyl)-5-[1-(3-dimethylaminopropyl)-3-(1,3-thiazol-2-yl)ureidomethyl]pyridine-2-carboxylic acid amide], the “Enzyme Inhibitory Rate (%)” value in assay [1] is given as 96%. Further, in assay [2], the CSI was found to be 0.499.
On to `COc1ccc2nc(NC(=O)N(CCCN(C)C)Cc3ccc(C(=O)Nc4ccccc4N)nc3)sc2c1` [Compound 1-42, N-(2-Aminophenyl)-5-[1-(3-dimethylaminopropyl)-3-(6-methoxy-1,3-benzothiazol-2-yl)ureidomethyl]pyridine-2-carboxylic acid amide], for which, in assay [1], the “Enzyme Inhibitory Rate (%)” value is given as 98%. This molecule returned a CSI in assay [2] of 0.536.
Taken in the same sequence, the figures for `CN(C)CCCN(Cc1ccc(C(=O)Nc2ccccc2N)nc1)C(=O)Nc1nc2ccc(F)cc2s1` [Compound 1-44, N-(2-Aminophenyl)-5-[1-(3-dimethylaminopropyl)-3-(6-fluoro-1,3-benzothiazol-2-yl)ureidomethyl]pyridine-2-carboxylic acid amide] were 98% and 0.554.
As for `CCN(CC)CCCN(Cc1ccc(C(=O)Nc2ccccc2N)nc1)C(=O)Nc1ccc(F)c(F)c1` [Compound 1-46, N-(2-Aminophenyl)-5-[1-(3-diethylaminopropyl)-3-(3,4-difluorophenyl)ureidomethyl]pyridine-2-carboxylic acid amide], the “Enzyme Inhibitory Rate (%)” value in assay [1] turned out to be 98%. This molecule registered a CSI in assay [2] of 0.547.
For the molecule `CCN(CC)CCCN(Cc1ccc(C(=O)Nc2ccccc2N)nc1)C(=O)Nc1ccc(F)c([N+](=O)[O-])c1` [Compound 1-51, N-(2-Aminophenyl)-5-[1-(3-diethylaminopropyl)-3-(4-fluoro-3-nitrophenyl)ureidomethyl]pyridine-2-carboxylic acid amide], the “Enzyme Inhibitory Rate (%)” value in assay [1] was 98%. The CSI in assay [2] is recorded as 0.518.
As for `CN(C)CCN(Cc1ccc(C(=O)Nc2ccccc2N)nc1)C(=O)Nc1ccc2c(c1)OCCO2` [Compound 1-53, N-(2-Aminophenyl)-5-[3-(2,3-dihydrobenzo[1,4]dioxin-6-yl)-1-(2-dimethylaminoethyl)ureidomethyl]pyridine-2-carboxylic acid amide], in assay [1], the “Enzyme Inhibitory Rate (%)” value is reported as 98%. Further, the CSI in assay [2] came out at 0.502.
As for `CN(C)CCN(Cc1ccc(C(=O)Nc2ccccc2N)nc1)C(=O)Nc1cccc(F)c1` [Compound 1-55, N-(2-Aminophenyl)-5-[1-(2-dimethylaminoethyl)-3-(3-fluorophenyl)ureidomethyl]pyridine-2-carboxylic acid amide], in assay [1], the “Enzyme Inhibitory Rate (%)” value stood at 98%. Moreover, in assay [2], the CSI is reported as 0.525.
With `CN(C)CCN(Cc1ccc(C(=O)Nc2ccccc2N)nc1)C(=O)Nc1ccsc1` [Compound 1-56, N-(2-Aminophenyl)-5-[1-(2-dimethylaminoethyl)-3-(thiophen-3-yl)ureidomethyl]pyridine-2-carboxylic acid amide], the “Enzyme Inhibitory Rate (%)” value in assay [1] is 97%. Besides, the CSI in assay [2] was found to be 0.526.
